The values below come from patent publication US12201626B2, “Bifunctional compositions for the treatment of cancer” (ARMACEUTICA, INC., priority 2018, dated 2025).

Each structure is given as a SMILES string. Like-named read-outs stand apart in the source and are kept apart here. Where a SMILES comes first, the peptide text is derived from it. The star is where a group is joined. Cbz = O=C(OCc1ccccc1)*

In general, CC50 refers to the concentration giving 50% cytotoxicity.

For series [1], the system named is plasmid dsDNA (pCMV-dR8.91). The series is described as follows: DNA mobility-shift assay (agarose gel). More on the design: DNA mobility shift: unit of the concentration uncertain. The format is binding. As for the experimental part:
Typically, an experimental compound intercalating or binding to double stranded (ds) DNA will increase the molecular mass resulting from forming complexes, decreasing its electrophoretic mobility in an agarose gel, as compared with untreated dsDNA. To explore the potential interaction between PND and dsDNA, a DNA mobility-shift assay was conducted. Each reaction mixture was of 10 μl total volume in PBS pH 7.4. Both PND (Sigma-Aldrich) and quinacrine (Sigma-Aldrich) were tested with three individual concentrations of 1 μM, 0.5 μM or 0.25 μM, respectively. To each reaction mixture, 100 ng of plasmid dsDNA (pCMV-dR8.91; Addgene, Cambridge, MA) was added and the mixture was then incubated for 30 min at 37° C. and stopped by adding 2 μl of 6× gel loading buffer and placed on ice. The potential binding interaction between both PND and quinacrine with dsDNA were analyzed by using 1% (w/v) agarose-gel electrophoresis dissolved in TAE buffer (0.04 M Tris base, 0.04 M acetate and 0.001 M EDTA) pH 8.0. To stain the dsDNA complexes, Ethidium bromide was added to the agarose gel throughout the electrophoresis process at a concentration of 0.5 μg/ml. DNA migration was visualized by utilizing a gel documentation system and pictures were captured by using a UV-light transilluminator (Alpha Innotech, San Leandro, CA). The well-known DNA intercalator fluorescent compound, propidium iodide (PI), was included as positive controls at 1 μg per reaction. As a control, untreated plasmid DNA was included to determine its normal electrophoretic mobility in the gel.

Another series relates to MDA-MB-231 cells. Description: Phosphatidylserine externalization, annexin V-FITC/PI flow cytometry. Particulars: positive control, 24 h. Type of series: cell-based, human. On the procedure: (§1) To determine whether cell death induced by PND was occurring through apoptosis or necrosis, MDA-MB-231 and HL-60 cells were stained with annexin V-FITC and PI and monitored via flow cytometry. Cells were seeded in 24-well plates at a density of 100,000 for adherent MDA-MB-231 and 200,000 HL-60 cells in 1 ml of culture media. After overnight incubation, cells were treated with PND, and incubated for an additional 24 h. For MDA-MB-231 cells, unattached cells were harvested in an ice-cold tube, while adhered cells were detached by using HyQtase (Thermo Fisher) and incubated for around 5 min at 37° C. Both unattached and detached cells harvested from each individual well were washed with ice-cold PBS and centrifuged at 260×g for 5 min. HL-60 were centrifuged directly after the incubation period as they grow in suspension. Cells were then stained with a mixture of annexin V-FITC and PI in 100 μl of binding buffer and incubated on ice in the dark for 15 minutes, following the manufacturer's instructions (Beckman Coulter). Lastly, the cells were resuspended by the addition of 400 μl of ice-cold binding buffer and analysed by flow cytometry (Cytomics FC500; Beckman Coulter). For this series of experiments, cells treated with PBS, as solvent control; treated with H2O2, as a positive control of cytotoxicity; and untreated were included and processed in parallel. For each sample, 10,000 events/cells were collected and analysed using CXP software (Beckman Coulter). Both the experimental samples and their controls were processed similarly and assessed in triplicate. The sum of both early and late stages of apoptosis was calculated to obtain the total percentage of apoptotic cells.
A general note: Flow cytometry measures light scatter and fluorescence of single cells or particles in a stream.

For a further series, the system named is HL-60 cells. The series is described as above. The format is cell-based, human. Particulars: positive control, 24 h. On the procedure:
as §1

Series [2] relates to MDA-MB-231 breast cancer line. The series is described as follows: cells. Type of series: cell-based, human. As for the experimental part: PND was added to cultures of the MDA-MB-231 breast cancer line 24 hours after the cells were treated with a selection of known commercial chemotherapeutic drugs, before the cells were analyzed for cell death. Each of the drugs are known to have serious side-effects at the does commonly administered for the treatment of cancer. The dose of the chemotherapeutic drugs was reduced to one half, one fourth, one eighth, and one sixteenth of the initial dose; while the dose of PND was kept the same. The effect of these combinational therapies was measured by the concentration of each compound needed to be cytotoxic to at least 50 percent of cancer cells (CC50).

[3] abbreviates: Homo sapiens, MDA-MB-231, read-out: initial dose (CC50).

On to `CC[N+](C)(CC)CCC[n+]1c(-c2ccccc2)c2cc(N)ccc2c2ccc(N)cc21.[I-].[I-]` [PI, propidium iodide], for which, in series [1] (positive control, 1 μg per reaction), the DNA mobility shift entry is recorded as “provoked retardation of the DNA mobility”.

Turning to `OO` [H2O2, hydrogen peroxide], the “mode of cytotoxic effect (apoptosis or necrosis)” value is recorded as “apoptosis” in the series on MDA-MB-231 cells and “necrosis” in the series on HL-60 cells.

As to `N.N.[Cl][Pt][Cl]` [cisplatin], in series [2], the half-maximal cytotoxic concentration (CC50) is 95400 nM.

Take `CC(C)C[C@@H](C=O)NC(=O)[C@H](CC(C)C)NC(=O)[C@H](CC(C)C)NC(=O)OCc1ccccc1` [MG132] (Cbz-Leu-Leu-Leu-aldehyde): the CC50 in series [2] (setting [3]) came to 500 nM.

As for `CCN(CC)CCCC(C)Nc1c2ccc(Cl)cc2nc2ccc(OC)cc12` (stereo not shown) [quinacrine], the DNA mobility shift entry is reported as “clear retardation mobility of the DNA” in series [1] (0.5 and 0.25 mM, 100 ng plasmid DNA); “maximum retardation of DNA mobility” in series [1] (1 (unit uncertain), 100 ng plasmid DNA, 30 min 37° C.). Moreover, the DNA degradation entry in series [1] (fragments smaller than free supercoiled DNA) is listed as “did not exhibit any DNA degradation activity”.

In the case of `CC(C)C[C@H](NC(=O)[C@H](Cc1ccccc1)NC(=O)c1cnccn1)B(O)O` [bortezomib], in series [2] (setting [3]), the 50% cytotoxic concentration (CC50) amounted to 10 nM.

For the compound `Nc1ccn([C@@H]2O[C@H](CO)[C@@H](O)C2(F)F)c(=O)n1` [gemcitabin], the cytotoxic concentration (CC50) in series [2] (setting [3]) was 440 nM.
